Test results as given in ChEMBL document CHEMBL1154680, “Alkyl and dialkylaminoethyl derivatives of 5-amino-2-azabicyclo[3.2.2]nonanes and their antiplasmodial and antitrypanosomal activities” (Eur J Med Chem, 2010).
Values belong to the compound of their own block, whether it stands above or below them.

Key:
[1] = Selectivity index, ratio of IC50 for rat L6 cells to IC50 for chloroquine and pyrimethamine-resistant Plasmodium falciparum K1; format: toxicity, cell-based; details: read-out: Ratio IC50
[2] = Selectivity index, ratio of IC50 for rat L6 cells to IC50 for Trypanosoma brucei rhodesiense STIB 900; format: toxicity, cell-based; details: read-out: Ratio IC50
Plasmodium falciparum = assay: Antiplasmodial activity against chloroquine and pyrimethamine-resistant Plasmodium falciparum K1 by microplate assay; format: functional, organism-based
[3] = system: Trypanosoma brucei rhodesiense; assay: […] activity against Trypanosoma brucei rhodesiense STIB 900 by microplate assay; format: functional, organism-based
L6 = assay: Cytotoxicity against rat L6 cells; format: cell-based

Structure (SMILES): Clc1ccc(C2CC3(N4CCCCC4)CCNC2C(c2ccc(Cl)cc2)C3)cc1 (stereo not given)
selectivity ratio [1]: 17.6
selectivity ratio [2]: 125

Structure (SMILES): Clc1ccc(C2CC3(N4CCCC4)CCNC2C(c2ccc(Cl)cc2)C3)cc1 (stereo not given)
selectivity ratio [1]: 40.2
selectivity ratio [2]: 152

Structure (SMILES): CN(C)C12CCNC(C(c3ccc(Cl)cc3)C1)C(c1ccc(Cl)cc1)C2 (stereo not given)
selectivity ratio [1]: 21.3
selectivity ratio [2]: 143

Structure (SMILES): CN(C)C12CCN(Cc3ccccc3)C(C(c3ccccc3)C1)C(c1ccccc1)C2 (racemic)
IC50 (Plasmodium falciparum): 0.6 µM
selectivity ratio [1]: 12.2
IC50 [3]: 1.41 µM
selectivity ratio [2]: 5.2
IC50 (L6): 7.33 µM

Structure (SMILES): c1ccc(CN2CCC3(N4CCCC4)CC(c4ccccc4)C2C(c2ccccc2)C3)cc1 (racemic)
IC50 (Plasmodium falciparum): 0.82 µM
selectivity ratio [1]: 5.67
IC50 [3]: 0.9 µM
selectivity ratio [2]: 5.17
IC50 (L6): 4.65 µM

Structure (SMILES): Clc1ccc(C2CC3(N4CCCC4)CCN(CCc4ccccc4)C2C(c2ccc(Cl)cc2)C3)cc1 (racemic)
IC50 (Plasmodium falciparum): 0.52 µM
selectivity ratio [1]: 8.12
IC50 [3]: 1.14 µM
selectivity ratio [2]: 3.7
IC50 (L6): 4.22 µM

Structure (SMILES): CN1CCC2(N3CCCC3)CC(c3ccc(Cl)cc3)C1C(c1ccc(Cl)cc1)C2 (racemic)
IC50 (Plasmodium falciparum): 0.87 µM
selectivity ratio [1]: 8.44
IC50 [3]: 0.35 µM
selectivity ratio [2]: 21
IC50 (L6): 7.34 µM

Structure (SMILES): c1ccc(CCN2CCC3(N4CCCC4)CC(c4ccccc4)C2C(c2ccccc2)C3)cc1 (racemic)
IC50 (Plasmodium falciparum): 0.96 µM
selectivity ratio [1]: 3.84
IC50 [3]: 0.93 µM
selectivity ratio [2]: 3.97
IC50 (L6): 3.69 µM

IC50 [3]: 1.76 µM
Structure (SMILES): CN1CCC2(N(C)C)CC(c3ccccc3)C1C(c1ccccc1)C2 (racemic)
selectivity ratio [2]: 61.9
IC50 (L6): 109 µM

Structure (SMILES): CN(C)C12CCN(CCN3CCCC3)C(C(c3ccccc3)C1)C(c1ccccc1)C2 (racemic)
IC50 (Plasmodium falciparum): 0.59 µM
selectivity ratio [1]: 136
IC50 [3]: 1.32 µM
selectivity ratio [2]: 60.9
IC50 (L6): 80.4 µM

Structure (SMILES): c1ccc(CCN2CCC3(N4CCCCC4)CC(c4ccccc4)C2C(c2ccccc2)C3)cc1 (racemic)
IC50 (Plasmodium falciparum): 0.71 µM
selectivity ratio [1]: 11.8
IC50 [3]: 1.2 µM
selectivity ratio [2]: 7
IC50 (L6): 8.4 µM

Structure (SMILES): CN1CCC2(N3CCCC3)CC(c3ccccc3)C1C(c1ccccc1)C2 (racemic)
IC50 (Plasmodium falciparum): 1.72 µM
selectivity ratio [1]: 53.5
IC50 [3]: 1.86 µM
selectivity ratio [2]: 49.5
IC50 (L6): 92.1 µM

Structure (SMILES): CN(C)C12CCN(CCc3ccccc3)C(C(c3ccccc3)C1)C(c1ccccc1)C2 (racemic)
IC50 (Plasmodium falciparum): 0.12 µM
selectivity ratio [1]: 38.3
IC50 [3]: 0.57 µM
selectivity ratio [2]: 8.07
IC50 (L6): 4.6 µM

Structure (SMILES): CN(C)C12CCN(CCc3ccccc3)C(C(c3ccc(Cl)cc3)C1)C(c1ccc(Cl)cc1)C2 (racemic)
IC50 (Plasmodium falciparum): 0.47 µM
selectivity ratio [1]: 7.23
IC50 [3]: 0.93 µM
selectivity ratio [2]: 3.66
IC50 (L6): 3.4 µM

Structure (SMILES): c1ccc(C2CC3(N4CCCC4)CCN(CCN4CCCC4)C2C(c2ccccc2)C3)cc1 (racemic)
IC50 (Plasmodium falciparum): 0.5 µM
selectivity ratio [1]: 116
IC50 [3]: 3.38 µM
selectivity ratio [2]: 17.2
IC50 (L6): 58.2 µM

Structure (SMILES): c1ccc(C2CC3(N4CCCCC4)CCN(CCN4CCCC4)C2C(c2ccccc2)C3)cc1 (racemic)
IC50 (Plasmodium falciparum): 0.092 µM
selectivity ratio [1]: 1690
IC50 [3]: 25.6 µM
selectivity ratio [2]: 6.09
IC50 (L6): 156 µM

Structure (SMILES): Clc1ccc(C2CC3(N4CCCCC4)CCN(CCc4ccccc4)C2C(c2ccc(Cl)cc2)C3)cc1 (racemic)
IC50 (Plasmodium falciparum): 0.73 µM
selectivity ratio [1]: 10.8
IC50 [3]: 1.86 µM
selectivity ratio [2]: 4.24
IC50 (L6): 7.89 µM

Structure (SMILES): C[C@@H]1CC[C@H]2[C@@H](C)C(=O)O[C@@H]3O[C@@]4(C)CC[C@@H]1[C@]32OO4 [ARTEMISININ]
IC50 (Plasmodium falciparum): 0.0064 µM
